Each structure is given as a SMILES string.

Series [1] has as its target E. coli GOT (GenBank Accession No. D90731.1) (Escherichia coli, UniProt P00509). The following applies: cited from earlier work.
Series [2] has as its system Glu in rat brain striatum. Put plainly: Dual-probe microdialysis of Glu in rat brain striatum. Type of series: in vivo.
Description: Glu (1M) was continuously perfused at a rate of 2 μl/min from the delivery probe while perfusing artificial CSF at the same rate of 2 μl/min through the recovery probe for the entire duration of the experiments. […] Microdialysis of 1M Glu along with an intravenous Glu injection performed at t=100 min for 30 min (30 μmoles/min/100 g).
Artificial CSF was perfused at a rate of 2 μl/min through the two probes for a duration of 60 min. A 1 M solution of glutamate was then perfused through the delivery probe, at a rate of 2 μl/min for the entire duration of the experiment while perfusing artificial CSF at the same rate of 2 μl/min through a recovery probe, located at 1 mm from the delivery probe. Aliqouots of 40 μl were collected from the recovery probe every 20 min. The recovered Glu was measured using a spectrofluorometric assay (see below).
A 20 μl aliquot from microdialysate was added to 480 μl HG buffer containing 15 U of Glu dehydrogenase in 0.2 mM NAD, 0.3M glycine, 0.25 M hydrazine hydrate adjusted to pH 8.6 with 1N H2SO4. […] A Glu standard curve was established with concentrations ranging from 0-6 μM. All determinations were done at least in duplicates. The results are expressed as mean.+−SD.
The dual-probe brain microdialysis was used and perfused through the delivery probe inserted in the striatum of anesthetized rats a Glu solution while simultaneously perfusing artificial CSF through a recovery probe, located at 1 mm distance.
Series [3] has as its system traumatic brain injury (TBI). The series is described as follows: Neurological severity score (NSS) after traumatic brain injury. Type of series: in vivo, rat. Particulars: for spontaneous partial recovery of rats submitted to TBI: summary statement.
Description: FIGS. 3A-C are graphs showing the effects of stress on the spontaneous recovery from traumatic brain injury. FIG. 3A illustrates TBI protocol and times of neurological severity score (NSS) assessment and removal of blood samples (asterisks) FIG. 4B is a histogram showing the effects of propranolol (10 mg/kg i.p) on the spontaneous recovery of rats submitted to TBI. Propranolol was injected 60 min before the infliction of TBI. The neurological severity scores were measured at 1 and 24 hours following TBI. The scores shown on the ordinate correspond to NSS averages+/−standard error of the mean. Control (n=33); propranolol (n=8). […] Propranolol was injected at a dose of 10 mg/kg i.p. 60 min before the infliction of TBI.
Animal anesthesia and well being—Experiments were conducted according to the recommendations of the Declarations of Helsinki and Tokyo and to the Guidelines for the Use of Experimental Animals of the European Community. The experiments were approved by the Animal Care Committees of Ben-Gurion University of the Negev and of the Weizmann Institute. Spontaneously breathing male Sprague Dawley rats weighing 200-300 g were anesthetized with a mixture of isoflurane (initial inspired concentration 2%) in 100% oxygen (1l/min). The rectal temperature was maintained at 37° C. using a heating pad and anesthesia was considered as sufficient for surgery when tail reflex was abolished. Catherization of the tail vein was carried out with a BD Neoflon 24 g catheter for allowing fluid infusion. Catherization of the tail artery was performed to allow blood sampling and determination of blood pressure and heart rate.
Series [4] deals with blood Glu levels. Put plainly: Blood Glu levels following traumatic brain injury. Type of series: in vivo, rat. As to the method:
FIGS. 3A-C are graphs showing the effects of stress on the spontaneous recovery from traumatic brain injury. FIG. 3A illustrates TBI protocol and times of neurological severity score (NSS) assessment and removal of blood samples (asterisks) […] is a histogram showing the effects of propranolol (10 mg/kg i.p) on the spontaneous recovery of rats submitted to TBI. Propranolol was injected 60 min before the infliction of TBI. The neurological severity scores were measured at 1 and 24 hours following TBI. The scores shown on the ordinate correspond to NSS averages+/−standard error of the mean. Control (n=33); propranolol (n=8). Bonferroni's multiple comparison tests: saline 1 h vs saline 24 h p<0.001; saline 1 h vs propranolol pretreatment p>0.05; saline 1 h vs propranolol post-TBI p<0.001. FIG. 3C is a graph showing the effects of propranolol on the blood Glu (rectangles) and glucose (triangles) levels of rats submitted to TBI (n=8). Propranolol was injected at a dose of 10 mg/kg i.p. 60 min before the infliction of TBI. Glu and glucose levels were measured at 1, 60, 120 and 150 min following TBI. Glu levels were normalized to the value at t=1 min.;
FIGS. 4A-C are graphs depicting the effects of a blood Glu scavenger and of Glu on the recovery from TBI. Rats were injected intravenously for a total duration of 30 min (as in FIG. 3A) either with saline (30 μl/min/100 g), OxAc (30 μmoles/min/100 g) or OxAc+Glu (30 μmoles/min/100 g each). Twenty four and forty eight hours later, rats were submitted to various tests to establish the NSS. The scores shown above each column correspond to NSS averages with bars indicating the standard error of the mean. FIG. 4A—The groups from left to right are as follows: control saline (n=33) at 1 hour and 24 h; OxAc (n=32); Glu (n=32); OxAc+Glu (n=17) at 24 h and 48 h; One way ANOVA and Bonferroni multiple comparison tests: At 24 h: saline versus OxAc: p<0.05; saline versus Glu: p<0.01; Glu versus OxAc: p<0.001; saline versus OxAc+Glu: p>0.05. […] Glu levels are expressed as the percent of the basal Glu levels measured before TBI. […] Paired t test: 0 versus 60 min saline p=5.10^−4; 0 versus 60 min OxAc p=0.10^−4; 60 min versus 75 min saline: p=0.59; 60 min versus 75 min OxAc: p=3.10^−3; 75 min versus 90 min saline: p=0.89; 75 min versus 90 min OxAc: p=2.10^−4; C: Time course of the recovery from TBI in saline (n=7) and OxAc-treated (n=7) rats as monitored by NSS values presented here as mean±standard deviation. […]
Glu spectrofluorometric assay—Glu concentration was measured using the fluorometric method of Graham and Aprison. […] After incubation for 30-45 min at room temperature, the fluorescence was measured at 460 nm with excitation at 350 nm. […] The results are expressed as mean.+−SD. […]

The nature of series [5]: Blood osmolality and Na content before and after treatment. Type of series: in vivo, rat. The following applies: OxAc group. As to the method: This beneficial effect was not observed in the other groups for which the treatment includes the intravenous administration of Glu (data not shown). Since OxAc could act on brain edema as an osmotic agent, both the blood osmolality and Na content were measured before and after the 30 min-long treatments with OxAc or saline. There was no change in the saline group (303±3.5 mOsm (pre-treatment) vs 299±3 mOsm (post-treatment); Na: 140±1 meq/l vs 141±0.8 meq/l) but a very significant increase in the OxAc-group: (301±5 mOsm vs 338±8 mOsm; Na: 139±1 meq/l vs 164±3.4 meq/l). The hypernatriema and hyperosmolarity in the OxAc-treated rats can be accounted by the fact that OxAc is administered together with 2 Na equivalents. To determine that the NSS improvement and edema reduction in the OxAc-treated rats were not due to an osmotic “therapy”, rats were submitted after TBI to a hypertonic (3% NaCl) saline treatment. As the respective NSS values obtained at 60 min and 24 h post TBI were 15.6±3.6 and 12.4±5.3 (n=7; p=0.16), it was concluded that the beneficial effects of OxAc are not the result of an osmotic therapy.

Series [6] has as its system blood Glu levels. Put plainly: Blood Glu levels in rats after stress hormones, agonists and antagonists. Type of series: in vivo, rat. Particulars: for effect on blood Glu levels: cortisol 25 mg/kg intraperitoneally, noradrenaline intravenously 30 min at 2 μg/100 g/min. As to the method: FIGS. 2A-B are line graphs showing the effects of stress hormones and stress on blood glutamate and glucose levels. A: Cortisol (25 mg/kg) was injected intraperitoneally (triangles). Noradrenaline was infused intravenously for 30 min at 2 μg/100 g/min and 1 ml/100 g (rectangles). Adrenaline was infused intravenously for 30 min at […] and 1 ml/100 g (diamonds). The data presented are normalized to the respective basal blood values and shown as mean±standard deviation (n=3). B: Effects of an intracranial insertion of a microdialysis probe (without any fluid perfusion) on blood Glu (diamonds) and glucose (rectangles) levels. The data presented are normalized to the respective basal blood values and shown as mean±standard deviation (n=4);
The rats NSS were measured after 24 and 48 h The results are presented as mean±standard deviation; and
FIG. 8 is a graph showing the effect of an alpha 1 agonist, phenylephrine on blood Glu levels. Phenylephrine was infused intravenously for 30 min into rats (n=4) at a rate 0.25 mg/0.5 ml/100 g/30 min and the levels of blood Glu were determined at time=0 and every subsequent 30 min until 120 min. The results are presented as mean±standard deviation.
Glu spectrofluorometric assay—Glu concentration was measured using the fluorometric method of Graham and Aprison. A 20 μl aliquot from microdialysate was added to 480 μl HG buffer containing 15 U of Glu dehydrogenase in 0.2 mM NAD, 0.3M glycine, 0.25 M hydrazine hydrate adjusted to pH 8.6 with 1N H2SO4. After incubation for 30-45 min at room temperature, the fluorescence was measured at 460 nm with excitation at 350 nm. A Glu standard curve was established with concentrations ranging from 0-6 μM. All determinations were done at least in duplicates. The results are expressed as mean.+−SD.
Determination of Blood/plasma Glu—Whole blood (200 μl aliquot) were deproteinized by adding an equal volume of ice-cold 1 M perchloric acid (PCA) and then centrifuging at 10000×g for 10 min at 4° C. The pellet was discarded and supernatant collected, adjusted to pH 7.2 with 2M K2CO3 and, if needed, stored at −80° C. for later analysis using the above-described assay.
The rats NSS were measured after 24 and 48 h.
Phenylephrine was infused intravenously for 30 min into rats (n=4) at a rate 0.25 mg/0.5 ml/100 g/30 min and the levels of blood Glu were determined at time=0 and every subsequent 30 min until 120 min.

Another series concerns blood glucose levels. Put plainly: Blood glucose levels following traumatic brain injury. Type of series: in vivo, rat. The following applies: propranolol 10 mg/kg i.p. 60 min before TBI. As to the method:
FIGS. 3A-C are graphs showing the effects of stress on the spontaneous recovery from traumatic brain injury. FIG. 3A illustrates TBI protocol and times of neurological severity score (NSS) assessment and removal of blood samples (asterisks) […] is a histogram showing the effects of propranolol (10 mg/kg i.p) on the spontaneous recovery of rats submitted to TBI. Propranolol was injected 60 min before the infliction of TBI. The neurological severity scores were measured at 1 and 24 hours following TBI. The scores shown on the ordinate correspond to NSS averages+/−standard error of the mean. Control (n=33); propranolol (n=8). […] Glu and glucose levels were measured at 1, 60, 120 and 150 min following TBI. […]
Animal anesthesia and well being—Experiments were conducted according to the recommendations of the Declarations of Helsinki and Tokyo and to the Guidelines for the Use of Experimental Animals of the European Community. […] Blood samples were analyzed for pH, pO2, pCO2, HCO3^−3. Glucose levels were measured with Accu-Chek sensor comfort. […] Following TBI, all rats were laid on their left side in order to recover from anesthesia and to check righting reflex and recovery time as part of the assessment of NSS which was evaluated 1 h after TBI (see below).

[7] abbreviates: baseline before 30 min-long treatment.

E. coli GOT (GenBank Accession No. D90731.1), sequence (P00509 whole entry): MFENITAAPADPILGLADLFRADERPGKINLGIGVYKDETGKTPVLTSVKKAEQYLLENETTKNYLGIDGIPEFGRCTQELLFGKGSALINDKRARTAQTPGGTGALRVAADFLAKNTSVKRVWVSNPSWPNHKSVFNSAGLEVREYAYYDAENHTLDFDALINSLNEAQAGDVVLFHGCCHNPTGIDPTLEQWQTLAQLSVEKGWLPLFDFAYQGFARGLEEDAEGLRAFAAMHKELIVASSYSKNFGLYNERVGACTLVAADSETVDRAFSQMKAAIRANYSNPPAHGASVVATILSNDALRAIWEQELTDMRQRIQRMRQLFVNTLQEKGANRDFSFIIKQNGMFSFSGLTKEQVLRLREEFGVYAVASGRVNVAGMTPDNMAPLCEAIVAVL

In the case of `O=C(O)CCC(=O)C(=O)O` [2-ketoglutarate], in series [1], the “affinity of E. coli GOT for the substance” value is reported as “about 0.2 mM”.
In the case of `N[C@@H](CCC(=O)O)C(=O)O` [Glu, L-glutamic acid], in series [2] (1M Glu perfused, intravenous Glu at t=100 min for 30 min, 30 μmoles/min/100 g), the “amounts of Glu reaching the recovery probe” value is “significantly more Glu reaches the recovery probe”. Also, the “recovery from TBI (NSS at 24 h and 48 h)” value in series [3] (intravenous 30 min, 30 μmoles/min/100 g (each), after TBI) was “recovered the least”. Also, in series [3], the “spontaneous partial recovery of rats submitted to TBI” value is given as “prevented”. Moreover, in series [1], the “affinity of E. coli GOT for the substance” value is listed as “about 8 mM”.
Turning to `O=C(O)CC(=O)C(=O)O` [OxAc, oxaloacetate], in series [2] (1M Glu perfused, intravenous OxAc at t=110 min for 30 min, 30 μmoles/min/100 g), the “further reduction of the amounts of Glu reaching the recovery probe” value is “up to 50 % of the peak value”. In addition, the “blood Glu levels after TBI” value with blood Glu levels [4] (intravenous OxAc 30 μmoles/min/100 g, 60-90 min after TBI, relative to basal Glu before TBI) is 40%. The “duration of decrease of blood Glu after TBI” value in the series on blood Glu levels [4] (stress- and OxAc-induced decreases) was “at least 90 min”. For the same molecule, in series [5] (after 30 min-long treatment), the “blood Na content, post-treatment” value was 164±3.4 meq/l and the “blood osmolality, post-treatment” value came to 338±8 mOsm. In addition, in series [5] (setting [7]), the “blood Na content, pre-treatment” value amounted to 139±1 meq/l and the “blood osmolality, pre-treatment” value amounted to 301±5 mOsm.
For the molecule `C[C@]12CCC(=O)C=C1CC[C@@H]1[C@@H]2[C@@H](O)C[C@@]2(C)[C@H]1CC[C@]2(O)C(=O)CO` [cortisol], in the series on blood Glu levels [6], the “effect on blood Glu levels” value is reported as “neither cortisol nor noradrenaline affected blood Glu levels”.
`COCCc1ccc(OCC(O)CNC(C)C)cc1` (stereo not drawn) [metaprolol]: the “effect on the reduction of blood Glu levels” value with blood Glu levels [6] (metaprolol 15 mg/kg, naive rats) is given as “strong effect”. Besides, the “reduction of in vivo rat blood glutamate” value in the series with blood Glu levels [6] (metaprolol 15 mg/kg, naive rats, followed to 120 min) was determined as 40%.
As for `NC[C@H](O)c1ccc(O)c(O)c1` [noradrenaline], the “effect on blood Glu levels” value with blood Glu levels [6] is “neither cortisol nor noradrenaline affected blood Glu levels”.
As to `CNC[C@H](O)c1cccc(O)c1` [phenylephrine], the “reduction of blood basal glutamate levels” value in the series with blood Glu levels [6] (injected intravenously at 0.1 mg/100 gr rat body-weight/30 min) is reported as 40%.
In the case of `CC(C)NCC(O)COc1cccc2ccccc12` (stereo not drawn) [propranolol], in series [2] (propranolol pretreatment, data not shown), the “effect on Glu dual-probe microdialysis profile” value is given as “did not affect”. In series [3] (propranolol 10 mg/kg i.p. 1 hour before TBI), the “spontaneous NSS improvement at 24 h” value is listed as “prevented the spontaneous NSS improvement”. Also, the NSS improvement entry in series [3] (propranolol administration delayed by 60 min after TBI) is listed as “caused the same NSS improvement as that found after saline treatment”. In addition, the “spontaneous partial recovery of rats submitted to TBI” value in series [3] was “prevented”. Also, the “stress-induced changes of blood Glu levels” value with blood Glu levels [4] (propranolol 10 mg/kg i.p. 60 min before TBI) is “prevented for at least 150 min the stress-induced changes of blood Glu and glucose levels”. In the series with blood Glu levels [4] (propranolol, rats submitted to TBI (FIGS. 3A-C)), the “effect on blood glutamate levels” value is given as “practically no effect”. The “stress-induced changes of blood glucose levels” value with blood glucose levels is “prevented for at least 150 min the stress-induced changes of blood Glu and glucose levels”.

The values above are taken from patent publication US20090304661A1, “Method And Composition For Proctecting Neuronal Tissue From Damage Induced By Elevated Glutamate Levels” (Yeda Research And Development Co. Ltd. at the Weizmann …, priority 2006, published 2009).
